Read-outs that look alike come from different tables or passages of the source.
What was measured:
[1] = tested on: NCI-H460 non-microcytoma lung cancer cells; assay: Cytotoxic activity on NCI-H460 cells (sulforodamine B test); assay type: cell-based; conditions: product concentration that inhibits cell survival by 50%; 2 hours incubation with products, then another 72 hours in drug-free medium; optical density at 540 nm; read-out: IC50 (µM) H-460
Procedure: NCI-H460 non-microcytoma lung cancer cells were kept in RPMI 1640 culture medium containing 10% FCS and 1% glutamine. The cytotoxicity test to analyse the activity of the molecules was performed as follows. The cells were seeded in a volume of 250 µl in 96-well plates and incubated for 2 hours at 37°C with scalar concentrations of the products in a humidified atmosphere containing 5% CO2. At the end of the incubation, the molecules were removed by overturning the plates and adding sterile buffered saline solution (PBS) three times. The RPMI 1640 culture medium containing 10% FCS (200 µl) was added to the wells and the plates were incubated for another 72 hours. At the end of the incubation, the plates were overturned again and dried on paper, before adding 200 µl of PBS and 50 µl of 80% TCA. The plates were incubated again in ice for at least 1 hour. The TCA was removed by overturning the plates and the plates were first dried on paper and then washed three times by immersion in distilled water and overturning. The plates were dried first on paper and then in a thermostatically regulated incubator at 60°C for 10 min. 200 µl of 0.4% sulforodamine B in 1% acetic acid were added to all wells. The plates were incubated at room temperature for another 30 min. The sulforodamine B was removed by overturning, the plates were washed by immersion in 1% acetic acid three times and then dried first on blotting paper and then in the thermostat at 60°C for 10 min. Lastly, 200 µl of Tris base 10 mM were added to all wells and the plates were subjected to stirring for at least 20 min. The optical density was measured with a Multiskan spectrophotometer at 540 nm. Incubation with the products was capable of inhibiting proliferation in a concentration-dependent manner. Table 1 presents the IC50 values (product concentration that inhibits cell survival by 50%]. IC50 values for topotecan have also been reported for comparison purposes (Dallavalle S. et al., J. Med. Chem., 44, 3264-74, 2001). Table 1.

[2] = tested on: NCI-H460 non-microcytoma lung cancer cells; conditions: topotecan value reported for comparison, from Dallavalle S. et al., J. Med. Chem., 44, 3264-74, 2001; read-out: IC50 (µM) H-460; cited from earlier work

Q: With `CC[C@@]1(O)C(=O)OCc2c1cc1n(c2=O)Cc2cc3c(C=NOC(C)(C)C)c(OC)ccc3nc2-1` [10-OCH3-CPT-9-CH=NOC(CH3)3, 10-methoxy-9-tert-butoxyiminomethylcamptothecin] as the compound, how does the IC50 [1] read?
A: 0.31 µM

Q: With `CC[C@@]1(O)C(=O)OCc2c1cc1n(c2=O)Cc2cc3c(C#N)c(OC)ccc3nc2-1` [10-OCH3-CPT-9-CN, 10-Methoxy-9-cyanocamptothecin] as the compound, how does the IC50 [1] read?
A: 0.27 µM

Q: Which IC50 [1] does the source give for `CC[C@@]1(O)C(=O)OCc2c1cc1n(c2=O)Cc2cc3c(C=NOC(C)(C)C)c(O)ccc3nc2-1` [10-OH-CPT-9-CH=NOC(CH3)3, 10-hydroxy-9-tert-butoxyiminomethylcamptothecin] here?
A: 0.35 µM

Q: Which IC50 [1] does the source give for `CC[C@@]1(O)C(=O)OCc2c1cc1n(c2=O)Cc2cc3c(C=NOC(C)(C)C)cccc3nc2-1` [CPT-9-CH=NOC(CH3)3, 9-tert-Butoxyiminomethylcamptothecin] here?
A: 0.067 µM

Q: Which IC50 [1] does the source give for `CC[C@@]1(O)C(=O)OCc2c1cc1n(c2=O)Cc2cc3c(C=NOCCN)cccc3nc2-1` [CPT-9-CH=NOCH2CH2NH2, 9-(2-Aminoethoxy)iminomethylcamptothecin] here?
A: 2.53 µM

Q: Which IC50 [2] does the source give for `CC[C@@]1(O)C(=O)OCc2c1cc1n(c2=O)Cc2cc3c(CN(C)C)c(O)ccc3nc2-1` [topotecan, 10-hydroxy-9-dimethylaminomethylcamptothecin] here?
A: 1.38 µM
